According to US20240307283A1, “COMPOSITIONS AND METHODS FOR DECREASING PIGMENTATION” (The General Hospital Corporation, priority 2021, published 2024):

What was measured:
murine Melan-A cells = experiment: Melanin content of Melan-A cells with NNT inhibitors; assay type: cell-based, mouse; settings: 2 mM, FIG. 3A
Protocol: Murine Melan-A (Bennett et al., 1987) cells were obtained from the Wellcome Trust Functional Genomics Cell Bank. Melan-A cells were grown in RPMI 1640 supplemented with 10% FBS or FetalPlex (Gemini Bio-Products, #100-602), 100,000 U/L penicillin, 100 mg/L streptomycin sulphate, 100× Glutamax, and 200 nM TPA.
(§1) In vitro culture with NNT inhibitors: 2,3-Butanedione 97% (2,3 BD) (Sigma Aldrich, #B85307) (1 μM, 10 μM, 100 μM, 2 mM), N,N-Dicyclohexylcarbodiimide (DCC) (Sigma Aldrich, #D80002) (1 mM, 2 mM, 10 mM), and Palmitoyl coenzyme A lithium salt (Sigma Aldrich, #P9716) (10 μM, 2 mM) were reconstituted with DMSO (American Type Culture Collection, 4-X).
(§2) Melanin quantification: Equal numbers of cells were plated in 6-well plates. The cells were then harvested 72-96 hours post siRNA or NNT inhibitors compounds, as indicated in the legends, pelleted, washed in PBS and counted. 10^6 cells were used for measurement of protein concentration with the Pierce BCA protein assay (Thermo Fisher Scientific, #23225) and 10^6 cells were resuspended in 60 μl of 1 N NaOH solution and incubated at 60° C. for 2 h or until the melanin was completely dissolved. After cooling down to room temperature, samples were centrifuged at 500×g for 10 min and the supernatants were loaded onto a 96-well plate. The melanin content was determined by measuring the absorbance at 405 nm on an Envision plate reader, compared with a melanin standard (0 to 50 μg/ml; Sigma Aldrich, #M8631). Melanin content was expressed as micrograms per milligram of protein.

[1] = tested on: primary human melanocytes; experiment: Intracellular melanin content of primary human melanocytes with NNT inhibitors; assay type: cell-based; settings: 2.3 BD 2 mM for 72 hours, FIG. 10D
Description: Primary human melanocytes were isolated from normal discarded foreskins and were established in TIVA medium as described previously (Khaled et al., 2010) or in Medium 254 (Life Technologies, #M254500) (Allouche et al., 2015). Human melanoma cell line UACC257 (sex unspecified) was obtained from the National Cancer Institute (NCI), Frederick Cancer Division of Cancer Treatment and Diagnosis (DCTD) Tumor Cell Line Repository. SK-MEL-30 ([…]) human melanoma cell line was from Memorial Sloan Kettering Cancer Center. Both melanoma cell lines have been authenticated by our lab using ATCC's STR profiling service. UACC257 and SK-MEL-30 cells were cultured in DMEM and RPMI medium (Life Technologies, #11875119) respectively, supplemented with 10% fetal bovine serum and 1% penicillin/streptomycin/L-glutamine in a humidified atmosphere of 95% air and 5% CO2 at 37° C.
as §1, §2

[2] = tested on: human melanocytes, dermal fibroblasts, and keratinocytes; experiment: Cell viability of human skin cells with NNT inhibitors; assay type: cell-based; settings: up to 10 μM, FIG. 10B
Protocol: Primary human keratinocytes were cultured in EpiLife® medium supplemented with human keratinocyte growth supplement (HKGS, ThermoFisher Scientific). Primary human fibroblasts were cultured in medium 106 supplemented with low serum growth supplement (LSGS, ThermoFisher Scientific). 10^6 and […] cells were plated per well of 6-well and 96-well plates, respectively. Drugs indicated in the figure legends were dissolved in DMSO and added 1:1000 to the culture media for 24 h at the concentrations indicated.
(§3) Cell viability assay: Human melanoma cell lines and isolated primary cultured human melanocytes were propagated and tested in early passage (Passages 7 to 9). The effects of NNT inhibitors (2,3BD, DCC, and Palmitoyl coenzyme A lithium salt) on cell viability were evaluated by the CellTiter-Glo Luminescent Cell Viability Assay (Promega, #G7570) and measurement of luminescence was performed on an EnVision 2104 Multilabel Reader (PerkinElmer). Human melanoma cell lines and primary melanocytes were plated on 96-well white plates (10,000 cells/well) and were treated with the NNT inhibitors at the indicated concentrations for 24 h.

primary melanocytes = experiment: Cell viability of primary melanocytes, different doses; assay type: cell-based, human; settings: different doses, relative to vehicle, FIG. 10C
Protocol: as §3

[3] = tested on: UACC257 human melanoma cell line; experiment: Cell viability of UACC257 cells; assay type: cell-based; settings: different doses, FIG. 10E
Protocol: as §3

zebrafish melanocytes = experiment: Chemical treatment of zebrafish, melanocytic brightness; assay type: in vivo; settings: 24 hours, 100 μM 2,3BD or 50 μM DCC
Protocol: Wildtype Tübingen zebrafish were placed in a 24 well plate at 72 hours post-fertilization, with 10 larvae per well for a total twenty larvae per condition. Larvae were treated for 24 hours with either 2,3BD (1 μM, 10 μM, 100 μM, 1 mM; Sigma Aldrich, #B85307), DCC (1 μM, 10 μM, 50 μM, 100 μM; Sigma Aldrich, #D80002), or DMSO (1:500) in E3 embryo medium. At 4 days post fertilization, larvae were imaged using a Nikon SMZ18 Stereomicroscope. Melanocytes from at least 5 zebrafish embryos of each group for each experiment were analyzed using the FIJI software enabling pixel-based color quantification.

NNT [4] = molecular target: T1, NNT (Homo sapiens, UniProt Q13423); experiment: GSH/GSSG ratio in UACC257 melanoma cells; assay type: cell-based; parameters: endogenous in cells; settings: different doses
T1 sequence (Q13423 44-1086): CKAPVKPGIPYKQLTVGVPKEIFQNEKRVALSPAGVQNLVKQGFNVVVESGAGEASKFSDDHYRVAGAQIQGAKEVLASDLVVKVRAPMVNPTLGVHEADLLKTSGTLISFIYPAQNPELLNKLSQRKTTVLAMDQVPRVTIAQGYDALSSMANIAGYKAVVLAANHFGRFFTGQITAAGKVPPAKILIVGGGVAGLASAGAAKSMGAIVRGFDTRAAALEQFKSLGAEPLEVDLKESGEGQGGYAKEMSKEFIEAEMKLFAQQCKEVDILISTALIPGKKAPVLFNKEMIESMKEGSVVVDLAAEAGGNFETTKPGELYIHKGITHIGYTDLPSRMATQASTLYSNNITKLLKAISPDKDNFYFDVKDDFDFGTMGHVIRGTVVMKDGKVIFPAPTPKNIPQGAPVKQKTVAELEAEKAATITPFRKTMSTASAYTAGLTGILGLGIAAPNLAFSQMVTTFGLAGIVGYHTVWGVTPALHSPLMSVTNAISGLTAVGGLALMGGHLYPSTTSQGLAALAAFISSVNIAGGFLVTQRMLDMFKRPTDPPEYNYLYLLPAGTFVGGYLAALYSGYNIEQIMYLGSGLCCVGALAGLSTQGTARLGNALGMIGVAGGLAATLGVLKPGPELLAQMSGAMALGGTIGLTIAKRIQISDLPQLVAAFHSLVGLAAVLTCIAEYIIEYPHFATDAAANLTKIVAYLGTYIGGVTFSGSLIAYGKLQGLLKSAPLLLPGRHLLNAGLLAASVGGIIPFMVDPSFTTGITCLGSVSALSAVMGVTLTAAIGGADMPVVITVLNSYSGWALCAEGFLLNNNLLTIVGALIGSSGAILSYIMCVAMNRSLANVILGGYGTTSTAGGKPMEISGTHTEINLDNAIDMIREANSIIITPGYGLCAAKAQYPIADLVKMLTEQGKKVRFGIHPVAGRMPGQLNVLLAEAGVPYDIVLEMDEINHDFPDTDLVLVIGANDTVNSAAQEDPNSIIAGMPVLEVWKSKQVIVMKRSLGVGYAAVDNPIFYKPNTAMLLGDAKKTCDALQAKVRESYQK
Protocol: (§4) Glutathione measurements: Cell lysates were prepared from equal numbers of cells after 24 h of DCC or 2,3BD treatment, following the manufacturer's protocols. Seventy-two h post siRNA treatment or overexpression of NNT and their corresponding controls, glutathione levels were determined using the GSH/GSSG-Glo assay (Promega, #V6611) and luminescence was measured using an EnVision 2104 Multilabel Reader (PerkinElmer).

NNT [5] = molecular target: T1, NNT; experiment: GSH/GSSG ratio (indirect endpoint of NNT enzyme activity) in primary melanocytes; assay type: cell-based; parameters: endogenous in cells; host or cells: primary human melanocytes (isolated from neonatal foreskins); settings: different doses, 24 hours
Protocol: as §4

SMILES: C(=NC1CCCCC1)=NC1CCCCC1 [DCC, N,N′-Dicyclohexylcarbodiimide]
- melanin content (murine Melan-A cells): increased melanin content
- intracellular melanin content [1]: significantly increased the melanin content
- toxicity (viability) [2]: no significant toxicity
- cell viability (primary melanocytes): no impacts on cell viability
- cell viability [3]: no impact on cell viability
- darkening of zebrafish embryos (melanocytic brightness) (zebrafish melanocytes): significant darkening
- GSH/GSSG ratio (NNT [4]): decreased GSH/GSSG ratios
- GSH/GSSG ratio (NNT [5]): decreased GSH/GSSG ratios
